From US12653859B2, “Peptides and medical uses thereof” (Anbition S.R.L., priority 2018, dated 2026) come the findings set out here.

The nature of series [1]: Serum protease stability in 10% fetal calf serum (RP-HPLC). The series is classed as in vitro ADME. The following applies: 10% FCS. How it is done:
The stability of the peptide iVR1-Cys in 10% serum (fetal calf serum, FCS) in a 50 mM phosphate buffer solution, pH 7.3, at 168 h was determined as described by Ponticelli et al., relying on a method based on RP-HPLC chromatography, described therein [Ponticelli et al., J Biol Chem. 2008 Dec. 5; 283 (49): 34250-9].
The reference curve was constructed by dissolving the compound in DMSO at increasing concentrations of between 0.1 μmol/L and 1000 μmol/L in order to have complete dissolution. The concentration of the molecule left in contact with 10% FCS at the initial concentration of 10 μmol/L was then determined by drawing 3 aliquots at time t=0, then every hour in the first 12 hours and then at 24, 72, 120, and 168 h. The aliquots were diluted 1:1 with acetic acid 0.1 M in order to detach any peptide bound to the albumin, centrifuged to remove any precipitated materials and analyzed by RP-HPLC under the conditions reported in Ponticelli et al. The amount of residual peptide detected in the aliquots, expressed as a percentage relative to the initial amount, was plotted as a function of time. The results are shown in Table VII as the mean of the three determinations±the standard deviation (SD).

Series [2] deals with T1, VEGF-A/VEGFR-1 interaction (Homo sapiens, UniProt P17948).
T1 construct: the form consisting of the seven extracellular domains of the receptor fused to the Fc domain of human IgG; purchased R&D Systems 321-FL (receptor); 293-VE (VEGF-A)
As to the kind of experiment: ELISA competition assay of VEGF-A binding to VEGFR-1. The following applies: tetrameric peptides of formula (II) with Y2 different from D-cysteine; read-out: IC50 of inhibition of the interaction VEGF-A/VEGFR-1. How it is done:
The binding reaction was conducted for one hour at 37° C., followed by one hour at room temperature. At the end of the binding and/or competition step, anti-human-PIGF biotinylated polyclonal antibodies (R&D Systems, cat No. BAF264) or anti-human-VEGF-A (R&D Systems, cat No. BAF293) were added to the wells at the concentration of 300 ng/ml in PBET. After one hour of incubation at 37° C. followed by one hour at room temperature, an HRP-conjugated avidin-streptavidin system (Vectastain elite ABC kit) and a substrate for HRP (o-phenylenediamine-Sigma, cat No. P1526) were added to the wells. Quantization was performed by determining the absorbance at 490 nm. Any inhibitory activity of the peptides was expressed in terms of % of residual binding, comparing the data obtained for the binding of PIGF or VEGF-A to the receptors in the presence of the tetrameric peptides with those in the absence of the same. iVR1 represented the positive control of the inhibition of the PIGF/VEGFR-1 or VEGF-A/VEGFR-1 interaction.

T1 sequence (P17948 27-758 limits assumed): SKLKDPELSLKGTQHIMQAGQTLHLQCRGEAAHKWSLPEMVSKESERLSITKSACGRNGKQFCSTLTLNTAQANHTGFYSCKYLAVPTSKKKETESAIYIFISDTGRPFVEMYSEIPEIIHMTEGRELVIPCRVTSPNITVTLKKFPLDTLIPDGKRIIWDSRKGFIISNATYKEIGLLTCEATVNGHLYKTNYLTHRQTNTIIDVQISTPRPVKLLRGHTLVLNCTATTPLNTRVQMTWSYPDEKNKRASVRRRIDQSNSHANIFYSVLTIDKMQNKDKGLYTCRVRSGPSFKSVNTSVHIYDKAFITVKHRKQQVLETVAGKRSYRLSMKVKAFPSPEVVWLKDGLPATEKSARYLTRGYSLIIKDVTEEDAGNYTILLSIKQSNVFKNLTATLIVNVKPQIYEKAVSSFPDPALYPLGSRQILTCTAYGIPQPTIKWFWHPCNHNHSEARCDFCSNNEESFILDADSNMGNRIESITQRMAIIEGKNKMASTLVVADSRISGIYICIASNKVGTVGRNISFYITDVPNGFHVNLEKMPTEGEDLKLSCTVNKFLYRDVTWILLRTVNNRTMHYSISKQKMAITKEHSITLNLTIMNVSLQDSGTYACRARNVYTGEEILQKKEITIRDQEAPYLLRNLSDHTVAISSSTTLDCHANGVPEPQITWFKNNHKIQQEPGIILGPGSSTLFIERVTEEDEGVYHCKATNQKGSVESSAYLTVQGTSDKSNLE

On to `NC(=O)[C@@H](CS)NC(=O)C(CCCCNC(=O)C(CCCCNC(=O)[C@H](CC1CCCCC1)NC(=O)C(CSCc1ccccc1)NC(=O)[C@H](N)CCC(=O)O)NC(=O)[C@H](CC1CCCCC1)NC(=O)C(CSCc1ccccc1)NC(=O)[C@H](N)CCC(=O)O)NC(=O)C(CCCCNC(=O)[C@H](CC1CCCCC1)NC(=O)C(CSCc1ccccc1)NC(=O)[C@H](N)CCC(=O)O)NC(=O)[C@H](CC1CCCCC1)NC(=O)C(CSCc1ccccc1)NC(=O)[C@H](N)CCC(=O)O` (some centres unmarked) [iVR1-Cys], for which the “% residual peptide ± SD” value in series [1] (0 h, 50 mM phosphate buffer pH 7.3, initial 10 μmol/L) worked out at 101 ± 4%. The remaining at 1 h, 10 μmol/L in series [1] (cattle (fetal calf), 10% fetal calf serum in phosphate buffer, 1 h, pH 7.3, read-out: % residual peptide ± SD) came out at 100 ± 11%. Moreover, the remaining at 2 h, 10 μmol/L in series [1] (cattle (fetal calf), 10% fetal calf serum in phosphate buffer, 2 h, pH 7.3, read-out: % residual peptide ± SD) came out at 99 ± 7%. In addition, the remaining at 3 h, 10 μmol/L in series [1] (cattle (fetal calf), 10% fetal calf serum in phosphate buffer, 3 h, pH 7.3, read-out: % residual peptide ± SD) stood at 98 ± 5%. Further, in series [1] (cattle (fetal calf), 10% fetal calf serum in phosphate buffer, 4 h, pH 7.3, read-out: % residual peptide ± SD), the remaining at 4 h, 10 μmol/L was determined as 97 ± 4%. In addition, the remaining at 5 h, 10 μmol/L in series [1] (cattle (fetal calf), 10% fetal calf serum in phosphate buffer, 5 h, pH 7.3, read-out: % residual peptide ± SD) is 96 ± 5%. In addition, the remaining at 6 h, 10 μmol/L in series [1] (cattle (fetal calf), 10% fetal calf serum in phosphate buffer, 6 h, pH 7.3, read-out: % residual peptide ± SD) was determined as 99 ± 6%. Further, in series [1] (cattle (fetal calf), 10% fetal calf serum in phosphate buffer, 7 h, pH 7.3, read-out: % residual peptide ± SD), the remaining at 7 h, 10 μmol/L amounted to 95 ± 8%. In addition, in series [1] (cattle (fetal calf), 10% fetal calf serum in phosphate buffer, 8 h, pH 7.3, read-out: % residual peptide ± SD), the remaining at 8 h, 10 μmol/L was 96 ± 5%. In addition, the remaining at 9 h, 10 μmol/L in series [1] (cattle (fetal calf), 10% fetal calf serum in phosphate buffer, 9 h, pH 7.3, read-out: % residual peptide ± SD) came out at 95 ± 6%. In addition, the remaining at 10 h, 10 μmol/L in series [1] (cattle (fetal calf), 10% fetal calf serum in phosphate buffer, 10 h, pH 7.3, read-out: % residual peptide ± SD) is 94 ± 10%. Moreover, in series [1] (cattle (fetal calf), 10% fetal calf serum in phosphate buffer, 11 h, pH 7.3, read-out: % residual peptide ± SD), the remaining at 11 h, 10 μmol/L was 94 ± 8%. The remaining at 12 h, 10 μmol/L in series [1] (cattle (fetal calf), 10% fetal calf serum in phosphate buffer, 12 h, pH 7.3, read-out: % residual peptide ± SD) was 93 ± 4%. In series [1] (cattle (fetal calf), 10% fetal calf serum in phosphate buffer, 24 h, pH 7.3, read-out: % residual peptide ± SD), the remaining at 24 h, 10 μmol/L came to 93 ± 6%. Besides, the remaining at 72 h, 10 μmol/L in series [1] (cattle (fetal calf), 10% fetal calf serum in phosphate buffer, 72 h, pH 7.3, read-out: % residual peptide ± SD) is 92 ± 7%. The remaining at 120 h, 10 μmol/L in series [1] (cattle (fetal calf), 10% fetal calf serum in phosphate buffer, 120 h, pH 7.3, read-out: % residual peptide ± SD) was determined as 91 ± 5%. Further, in series [1] (cattle (fetal calf), 10% fetal calf serum in phosphate buffer, 168 h, pH 7.3, read-out: % residual peptide ± SD), the remaining at 168 h, 10 μmol/L is 92 ± 8%.

Consider D-serine, for which the IC50 in series [2] came to 2430 ± 3000 nM.

For L-cysteine, the IC50 in series [2] is 2030 ± 200 nM.

For the compound L-methionine sulfone, in series [2], the IC50 amounted to 4620 ± 1400 nM.
